Measured values as given in patent US20120295845A1, “IMIDAZO-PYRAZOLES AS GPR119 INHIBITORS” (Pfizer Inc, priority 2009, published 2012).
Several values for one entry are separate records, joined by “and”; a condition that tells them apart may be missing. Equal values may be shown once.

What was measured:
[1] = target: T1, human GPR119 (Homo sapiens, UniProt Q8TDV5); experiment: beta-arrestin functional assay (DiscoverX PathHunter U2OS hGPR119 beta-arrestin cells); type: cell-based; details: for EC50: read-out: Human B-arrestin Functional EC50; for Emax: U2OS, read-out: Intrinsic Activity* (B-arrestin)
T1 construct: host or cells: U2OS
Method: GPR119 agonist activity was also determined with a cell-based assay utilizing DiscoverX PathHunter β-arrestin cell assay technology and their U2OS hGPR119 β-arrestin cell line (DiscoverX Cat # 93-0356C3). In this assay, agonist activation is determined by measuring agonist-induced interaction of β-arrestin with activated GPR119. A small, 42 amino acid enzyme fragment, called ProLink was appended to the C-terminus of GPR119. Arrestin was fused to the larger enzyme fragment, termed EA (Enzyme Acceptor). Activation of GPR119 stimulates binding of arrestin and forces the complementation of the two enzyme fragments, resulting in formation of a functional β-galactosidase enzyme capable of hydrolyzing substrate and generating a chemiluminescent signal.
Specifically, U2OS hGPR119 β-arrestin cells (DiscoverX 1×10^7/mL) are removed from cryopreservation and diluted in growth medium (Minimum essential medium (MEM; Gibco Cat # 11095-080), 10% heat inactivated fetal bovine serum (HIFBS; Sigma Cat # F4135-100), […] sodium pyruvate (Sigma Cat # S8636), 500 microg/mL G418 (Sigma Cat # G8168) and 250 microg/mL Hygromycin B (Invitrogen Cat # 10687-010). The cell concentration was adjusted to 1.66×10^5 cells/mL and 30 mLs of this suspension was added to a T-175 flask and incubated at 37 degrees Celsius in a humidified environment in 5% carbon dioxide. After 48 hours, the cells were removed from the T-175 flask with enzyme-free cell dissociation buffer (Gibco cat # 13151-014), centrifuged at 800×g and then re-suspended in plating medium (Opti-MEM I (Invitrogen/BRL Cat # 31985-070) and 2% charcoal dextran treated fetal bovine serum (CD serum; HyClone Cat # SH30068.03). The cell concentration was adjusted to 2.5×10^5 cells/mL with plating medium and 10 microL of this cell suspension (2500 cells) was added to each well of a white Greiner 384-well low volume assay plate (VWR cat # 82051-458) and the plates were incubated at 37 degrees Celsius in a humidified environment in 5% carbon dioxide.
After 16 hours (overnight) the assay plates were removed from the incubator and varying concentrations of each compound to be tested (diluted in assay buffer (1×HBSS+CaCl2+MgCl2 (Gibco Cat # 14025-092), 20 mM HEPES pH 7.0 (Gibco Cat # 15630-080) and 0.1% BSA (Sigma Cat # A9576)) were added to the assay plate wells in a volume of 2.5 microL (final DMSO concentration was 0.5%). After a 90 minute incubation at 37 degrees Celsius in a humidified environment in 5% carbon dioxide, 7.5 microL of Galacton Star β-galactosidase substrate (Path Hunter Detection Kit (DiscoveRx Cat # 93-0001); prepared as described in the manufacturers assay protocol) was added to each well of the assay plate. The plates were incubated at room temperature and after 60 minutes, changes in the luminescence were read with an Envision 2104 multilabel plate reader at 0.1 seconds per well. EC50 determinations were made from an agonist-response curves analyzed with a curve fitting program using a 4-parameter logistic dose response equation.
T1 sequence (P32121 whole entry partner, one chain of several): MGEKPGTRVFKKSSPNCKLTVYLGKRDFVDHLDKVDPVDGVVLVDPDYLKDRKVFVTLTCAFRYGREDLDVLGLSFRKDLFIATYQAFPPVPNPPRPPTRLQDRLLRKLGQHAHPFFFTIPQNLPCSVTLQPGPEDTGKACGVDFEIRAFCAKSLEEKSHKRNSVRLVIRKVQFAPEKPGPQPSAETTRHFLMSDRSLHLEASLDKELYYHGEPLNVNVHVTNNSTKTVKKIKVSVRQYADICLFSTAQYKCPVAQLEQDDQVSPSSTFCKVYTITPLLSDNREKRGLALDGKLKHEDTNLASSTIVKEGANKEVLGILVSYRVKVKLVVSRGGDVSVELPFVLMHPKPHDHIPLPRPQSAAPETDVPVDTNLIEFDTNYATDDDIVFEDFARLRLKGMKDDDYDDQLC

[2] = target: T2, human GPR119 (Homo sapiens, UniProt Q8TDV5); experiment: beta-lactamase functional assay (hGPR119 HEK293-CRE beta-lactamase reporter); type: cell-based; details: for EC50: read-out: Human B-lactamase Functional EC50; for Emax: read-out: Intrinsic Activity* (B-lactamase)
T2 construct: host or cells: HEK293-CRE beta-lactamase cells
T2 sequence (Q8TDV5 1-335): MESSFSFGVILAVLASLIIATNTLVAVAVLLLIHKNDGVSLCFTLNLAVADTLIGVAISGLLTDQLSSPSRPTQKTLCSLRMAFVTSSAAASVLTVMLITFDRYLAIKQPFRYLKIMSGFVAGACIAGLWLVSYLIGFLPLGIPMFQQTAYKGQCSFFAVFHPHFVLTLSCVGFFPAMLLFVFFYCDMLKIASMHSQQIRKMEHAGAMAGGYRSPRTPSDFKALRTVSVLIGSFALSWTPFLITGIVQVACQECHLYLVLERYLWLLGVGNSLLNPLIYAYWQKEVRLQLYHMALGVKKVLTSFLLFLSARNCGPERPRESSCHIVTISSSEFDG
Method: The assay for GPR119 agonists utilizes a cell-based (hGPR119 HEK293-CRE beta-lactamase) reporter construct where agonist activation of human GPR119 is coupled to beta-lactamase production via a cyclic AMP response element (CRE). GPR119 activity is then measured utilizing a FRET-enabled beta-lactamase substrate, CCF4-AM (Live Blazer FRET-B/G Loading kit, Invitrogen cat # K1027). Specifically, hGPR119-HEK-CRE- beta-lactamase cells (Invitrogen 2.5×10^7/mL) were removed from liquid nitrogen storage, and diluted in plating medium (Dulbecco's modified Eagle medium high glucose (DMEM; Gibco Cat # 11995-065), 10% heat inactivated fetal bovine serum (HIFBS; Sigma Cat # F4135), 1×MEM Nonessential amino acids (Gibco Cat # 15630-080), 25 mM HEPES pH 7.0 (Gibco Cat # 15630-080), 200 nM potassium clavulanate (Sigma Cat # P3494). The cell concentration was adjusted using cell plating medium and 50 microL of this cell suspension ([…]) was added into each well of a black, clear bottom, poly-d-lysine coated 384-well plate (Greiner Bio-One cat# 781946) and incubated at 37 degrees Celsius in a humidified environment containing 5% carbon dioxide. After 4 hours the plating medium was removed and replaced with 40 microL of assay medium (Assay medium is plating medium without potassium clavulanate and HIFBS). Varying concentrations of each compound to be tested was then added in a volume of 10 microL (final DMSO≦0.5%) and the cells were incubated for 16 hours at 37 degrees Celsius in a humidified environment containing 5% carbon dioxide. Plates were removed from the incubator and allowed to equilibrate to room temperature for approximately 15 minutes. 10 microL of 6×CCF4/AM working dye solution (prepared according to instructions in the Live Blazer FRET-B/G Loading kit, Invitrogen cat # K1027) was added per well and incubated at room temperature for 2 hours in the dark. Fluorescence was measured on an EnVision fluorimetric plate reader, excitation 405 nm, emission 460 nm/535 nm. EC50 determinations were made from agonist-response curves analyzed with a curve fitting program using a 4-parameter logistic dose-response equation.

[3] = U2OS hGPR119 beta-arrestin cells, 90 min incubation, one value per run
[4] = percent of maximal activity relative to standard GPR119 agonist (WO2005121121) at 10 microM, one value per run
[5] = marked **: curve extrapolated to 100%, relative to standard GPR119 agonist at 10 microM

Row | SMILES | EC50 [1, 3] | Emax [1, 4] [%] | Intrinsic Activity* (B-arrestin) [1, 4] | other results
1 | Cc1c(OC2CCN(C(=O)OC(C)C)CC2)ncnc1N1CCn2nccc21 [Example 1, Isopropyl 4-{[6-(2,3-dihydro-1H-imidazo[1,2-b]pyrazol-1-yl)-5-methylpyrimidin-4-yl]oxy}piperidine-1-carboxylate] |  |  |  | EC50 ([2]; curve was extrapolated to 100% to calculate the EC50 (**), one value per run): 8190 nM and 4570 nM; EC50 ([2]; hGPR119 HEK293-CRE beta-lactamase cells, 16 h incubation, one value per run): 612 nM and 386 nM and 1150 nM and 1440 nM; Emax [2, 5]: 100%; Intrinsic Activity* (B-lactamase) [2, 4]: 94% and 96%; Emax [2, 4]: 110%
2 | Cc1c(OC2CCN(C(=O)OC3(C)CC3)CC2)ncnc1N1CCn2nccc21 [Example 2, 1-Methylcyclopropyl 4-{[6-(2,3-dihydro-1H-imidazo[1,2-b]pyrazol-1-yl)-5-methylpyrimidin-4-yl]oxy}piperidine-1-carboxylate] |  |  |  | Emax [1, 5]: 100%; EC50 ([1]; curve was extrapolated to 100% to calculate the EC50 (**)): 313 nM

More lines, main results first:

Row | EC50 [1, 3] | Emax [1, 4] [%] | Intrinsic Activity* (B-arrestin) [1, 4] | SMILES | other results
3 | 74 nM and 92 nM | 83 | 68% | Cc1c(O[C@H]2CCN(C(=O)OC3(C)CC3)C[C@H]2F)ncnc1N1CCn2nccc21 (racemic) [Example 3, 1-Methylcyclopropyl (3R,4S)-4-{[6-(2,3-dihydro-1H-imidazo[1,2-b]pyrazol-1-yl)-5-methylpyrimidin-4-yl]oxy}-3-fluoropiperidine-1-carboxylate (racemic)] | 
4 | 53 nM | 38 |  | Cc1c(O[C@H]2CCN(C(=O)OC(C)C)C[C@H]2F)ncnc1N1CCn2nccc21 (racemic) [Example 4, Isopropyl (3R,4S)-4-{[6-(2,3-dihydro-1H-imidazo[1,2-b]pyrazol-1-yl)-5-methylpyrimidin-4-yl]oxy}-3-fluoropiperidine-1-carboxylate (racemic)] | 
5 | 56 nM and 49 nM |  | 83% and 55% | Cc1c(O[C@@H]2CCN(C(=O)OC3(C)CC3)C[C@@H]2F)ncnc1N1CCn2nccc21 (single isomer, unassigned) [Example 5] | 
6 | 47 nM and 121 nM |  | 87% and 65% | Cc1c(O[C@H]2CCN(C(=O)OC3(C)CC3)C[C@H]2F)ncnc1N1CCn2nccc21 (single isomer, unassigned) [Example 6] | 
